Data on 3 molecules can be found in patent US7812008B2, “9-substituted tetracyclines” (Wyeth LLC, priority 2005, dated 2010).

The test system of one assay is E. coli GC2270 (tet(M)). The experiment in a line: MIC broth microdilution, E. coli GC2270 (tet(M)). Type of assay: cell-based. The conditions noted are these: MHBII, 18-22 hours at 35° C. The method, then:
(§1) Methods for in Vitro Antibacterial Evaluation
(§2) The minimum inhibitory concentration (MIC)
(§3) Antimicrobial susceptibility testing. The in vitro activities of representative examples of antibiotics of the invention are determined by the broth microdilution method as recommended by the National Committee for Clinical Laboratory Standards (NCCLS) (1). Mueller-Hinton II broth (MHBII)(BBL Cockeysville, Md.) is the medium employed in the testing procedures. Microtiter plates containing serial dilutions of each antimicrobial agent are inoculated with each organism to yield the appropriate density (10^5 CFU/ml) in a 100 μl final volume. The plates are incubated for 18-22 hours at 35° C. in ambient air. […] NCCLS. 2000. Methods for Dilution Antimicrobial Susceptibility Tests for Bacteria That Grow Aerobically; Approved Standards: M7-A5, vol. 20. National Committe for Clinical Laboratory Standards, Wayne, Pa.
On the technique in general: In broth dilution the organism is exposed to a series of concentrations in liquid medium.

For assay [1], the system named is E. coli GC4559 (parent GC4560). The experiment in a line: MIC broth microdilution, E. coli GC4559 (parent GC4560). Type of assay: cell-based. The conditions noted are these: MHBII, 18-22 hours at 35° C. As for the experimental part:
as §1, §2, §3

The subject of assay [2] is E. coli GC4560 (IMP mutant). The experiment in a line: MIC broth microdilution, E. coli GC4560 (IMP mutant). The format is cell-based. The conditions noted are these: MHBII, 18-22 hours at 35° C. As for the experimental part:
as §1, §2, §3

In assay [3] the test system is E. coli GC2203 (ATCC Control). The experiment in a line: MIC broth microdilution, E. coli GC2203 (ATCC Control). Type of assay: cell-based. Conditions: MHBII, 18-22 hours at 35° C. The method, then:
as §1, §2, §3

For another assay, the system named is E. coli GC1073 (tet(B)). The experiment in a line: MIC broth microdilution, E. coli GC1073 (tet(B)). The format is cell-based. The conditions noted are these: MHBII, 18-22 hours at 35° C. The method, then: as §1, §2, §3
Assay [4] relates to S. aureus GC1131 (Clinical). The experiment in a line: MIC broth microdilution, S. aureus GC1131 (Clinical). Conditions: MHBII, 18-22 hours at 35° C. Type of assay: cell-based. The method, then:
as §1, §2, §3

In assay [5] the test system is S. aureus GC6466 (tet(M)). The experiment in a line: MIC broth microdilution, S. aureus GC6466 (tet(M)). Type of assay: cell-based. Conditions: MHBII, 18-22 hours at 35° C. As for the experimental part: as §1, §2, §3
The subject of assay [6] is S. aureus GC6467 (tet(M) + (K)). The experiment in a line: MIC broth microdilution, S. aureus GC6467 (tet(M) + (K)). Type of assay: cell-based. Conditions: MHBII, 18-22 hours at 35° C. The method, then: as §1, §2, §3
In assay [7] the test system is S. aureus GC1079 (tet(K)). Nature of the assay: MIC broth microdilution, S. aureus GC1079 (tet(K)). Type of assay: cell-based. Conditions: MHBII, 18-22 hours at 35° C. As for the experimental part:
as §1, §2, §3

Assay [8] deals with S. aureus GC4536 (Smith MP -In Vivo). The experiment in a line: MIC broth microdilution, S. aureus GC4536 (Smith MP -In Vivo). Type of assay: cell-based. Conditions: MHBII, 18-22 hours at 35° C. The method, then: as §1, §2, §3
In assay [9] the test system is S. aureus GC2216 (ATCC Control). Nature of the assay: MIC broth microdilution, S. aureus GC2216 (ATCC Control). The format is cell-based. The conditions noted are these: MHBII, 18-22 hours at 35° C. The method, then: as §1, §2, §3
Assay [10] deals with E. faecalis GC4555 (ATCC Control). The experiment in a line: MIC broth microdilution, E. faecalis GC4555 (ATCC Control). Conditions: MHBII, 18-22 hours at 35° C. Type of assay: cell-based. As for the experimental part: as §1, §2, §3
For assay [11], the system named is E. faecalis GC2267 (tet(L) + (M) + (S)). The experiment in a line: MIC broth microdilution, E. faecalis GC2267 (tet(L) + (M) + (S)). The format is cell-based. Conditions: MHBII, 18-22 hours at 35° C. The method, then:
as §1, §2, §3

Assay [12] deals with E. faecalis GC2242 (Van-resistant). Nature of the assay: MIC broth microdilution, E. faecalis GC2242 (Van-resistant). The format is cell-based. The conditions noted are these: MHBII, 18-22 hours at 35° C. The method, then: as §1, §2, §3
Assay [13] deals with S. pneumoniae* GC4465 (Clinical). Nature of the assay: MIC broth microdilution, S. pneumoniae GC4465 (Clinical). The format is cell-based. The conditions noted are these: 18-22 hours at 35° C. The method, then:
as §1, §2, §3

Assay [14] has as its system S. pneumoniae* GC1894 (Clinical). The experiment in a line: MIC broth microdilution, S. pneumoniae GC1894 (Clinical). The format is cell-based. The conditions noted are these: 18-22 hours at 35° C. The method, then:
as §1, §2, §3

The test system of assay [15] is S. pyogenes* GC4563 (Clinical). Nature of the assay: MIC broth microdilution, S. pyogenes GC4563 (Clinical). The format is cell-based. The conditions noted are these: 18-22 hours at 35° C. The method, then:
as §1, §2, §3

Assay [16] deals with M. catarrhalis* GC6907 (Clinical). The experiment in a line: MIC broth microdilution, M. catarrhalis GC6907 (Clinical). Type of assay: cell-based. The conditions noted are these: 18-22 hours at 35° C. The method, then:
as §1, §2, §3

Assay [17] deals with H. influenzae<> GC6896 (ATCC Control). The experiment in a line: MIC broth microdilution, H. influenzae GC6896 (ATCC Control). Conditions: 18-22 hours at 35° C. The format is cell-based. As for the experimental part:
as §1, §2, §3

The subject of assay [18] is C. albicans GC3066 ATCC (Control). The experiment in a line: MIC broth microdilution, C. albicans GC3066 ATCC (Control). Type of assay: cell-based. The conditions noted are these: 18-22 hours at 35° C. The method, then: as §1, §2, §3
Assay [19] has as its system Staphylococcal aureus Smith M P. The experiment in a line: In vivo antibacterial evaluation, acute lethal infection in mice. Conditions: Mus musculus; single oral dose 30 minutes after intraperitoneal challenge; female CD-1 mice; 7 day survival ratios, 3 tests pooled; read-out: SOD* ED50. As for the experimental part:
In Vivo Antibacterial Evaluation: The therapeutic effects of representative examples of the invention are determined against acute lethal infection with Staphylococcal aureus Smith M P, Female mice, strain CD-1 (Charles River Laboratoties), ca. 20 grams, are challenged by an intraperitoneal injection of sufficient bacteria (suspended in broth or hog mucin) to kill non-treated controls within 24-28 hours. Antibacterial agents, contained in 0.5 ml of 0.2% aqueous agar, are administered subcutaneously or orally 30 minutes after injection. When an oral dosing schedule is used, animal are deprived of food for 5 hours before and 2 hours after injection. Five mice are treated at each dose level. The 7 day survival ratios from 3 separate tests are pooled for calculation of median effective dose (ED50).

The test system is the same in assay [20]. The experiment in a line: MIC reported in Table 2 beside the in vivo ED50. Type of assay: cell-based. The conditions noted are these: Staphylococcus aureus, infecting strain S. aureus Smith MP. As for the experimental part:
Antimicrobial susceptibility testing. The in vitro activities of representative examples of antibiotics of the invention are determined by the broth microdilution method as recommended by the National Committee for Clinical Laboratory Standards (NCCLS) (1). Mueller-Hinton II broth (MHBII)(BBL Cockeysville, Md.) is the medium employed in the testing procedures. Microtiter plates containing serial dilutions of each antimicrobial agent are inoculated with each organism to yield the appropriate density (10^5 CFU/ml) in a 100 μl final volume. The plates are incubated for 18-22 hours at 35° C. in ambient air. […] NCCLS. 2000. Methods for Dilution Antimicrobial Susceptibility Tests for Bacteria That Grow Aerobically; Approved Standards: M7-A5, vol. 20. National Committe for Clinical Laboratory Standards, Wayne, Pa. In Vivo Antibacterial Evaluation: The therapeutic effects of representative examples of the invention are determined against acute lethal infection with Staphylococcal aureus Smith M P, Female mice, strain CD-1 (Charles River Laboratoties), ca. 20 grams, are challenged by an intraperitoneal injection of sufficient bacteria (suspended in broth or hog mucin) to kill non-treated controls within 24-28 hours. Antibacterial agents, contained in 0.5 ml of 0.2% aqueous agar, are administered subcutaneously or orally 30 minutes after injection. When an oral dosing schedule is used, animal are deprived of food for 5 hours before and 2 hours after injection. Five mice are treated at each dose level. The 7 day survival ratios from 3 separate tests are pooled for calculation of median effective dose (ED50).

Assay [21] has the same test system. Nature of the assay: In vivo antibacterial evaluation, acute lethal infection in mice. Conditions: Mus musculus, iv, 168 h; single intraveneous dose; female CD-1 mice; 7 day survival ratios, 3 tests pooled; read-out: SIV* ED50.

The structures appear in SMILES notation. ≈ marks a conversion by molar mass, not a printed value. Like-named read-outs stand apart in the source and are kept apart here. A value given as a limit tells only on which side of the number the result lay.

What is called ED50 is the dose at which the effect has come halfway, by size or by number of responders. The MIC is the lowest concentration that inhibits growth of the organism. For the molecule `CONCC(=O)Nc1cc(N(C)C)c2c(c1O)C(=O)C1=C(O)[C@]3(O)C(=O)C(C(N)=O)=C(O)[C@@H](N(C)C)[C@@H]3C[C@@H]1C2` [Example 5, (4S,4aS,5aR,12aS)-4,7-bis(dimethylamino)-3,10,12,12a-tetrahydroxy-9-[(N-methoxyglycyl)amino]-1,11-dioxo-1,4,4a,5,5a,6,11,12a-octahydrotetracene-2-carboxamide], the “minimum inhibitory concentration (MIC)” value in the assay with E. coli GC2270 (tet(M)) worked out at 4; in assay [1], 4; in [2], 0.25; in assay [3], 2; with E. coli GC1073 (tet(B)), 4; in assay [4], 1. The “minimum inhibitory concentration (MIC)” value in assay [5] is 1; in [6], 4; in assay [7], 2; in assay [8], 1; in [9], 1; in assay [10], 1. The “minimum inhibitory concentration (MIC)” value came to 4 in assay [11]; 2 in [12]; 0.12 in assay [13]; 0.25 in [14]; 0.25 in assay [15]; 0.25 in assay [16]. Also, the “minimum inhibitory concentration (MIC)” value in assay [17] is reported as 2; in assay [18] it was above 64. Besides, the ED50 in assay [19] lay in the range of 16 to 32 mg/kg; in assay [21], 0.5 to 1 mg/kg. In addition, the MIC in assay [20] worked out at 1 µg/mL (≈ 1.79 µM).
Consider `CN(C)c1cc(NC(=O)CN(O)Cc2ccccc2)c(O)c2c1C[C@H]1C[C@H]3[C@H](N(C)C)C(O)=C(C(N)=O)C(=O)[C@@]3(O)C(O)=C1C2=O` [Example 6, (4S,4aS,5aR,12aS)-9-[(N-benzyl-N-hydroxyglycyl)amino]-4,7-bis(dimethylamino)-3,10,12,12a-tetrahydroxy-1,11-dioxo-1,4,4a,5,5a,6,11,12a-octahydrotetracene-2-carboxamide], for which the “minimum inhibitory concentration (MIC)” value with E. coli GC2270 (tet(M)) was 16; in assay [1], 8; in [2], 0.25; in assay [3] it was 16; in the assay with E. coli GC1073 (tet(B)), 32; in [4] it was 4. Further, the “minimum inhibitory concentration (MIC)” value in assay [5] amounted to 2; in assay [6], 64; in assay [7], 8; in assay [8] it was 2; in assay [9], 2; in assay [10], 1. Moreover, the “minimum inhibitory concentration (MIC)” value amounted to 8 in assay [11]; 2 in assay [12]; 0.12 in [13]; 0.25 in [14]; 0.25 in assay [15]; 0.50 in [16]. Moreover, the “minimum inhibitory concentration (MIC)” value in [17] is on record as 2; in assay [18], above 64. Besides, the ED50 is above 16 mg/kg in [19] and above 4 mg/kg in assay [21]. In assay [20], this molecule came in with an MIC of 2 µg/mL (≈ 3.15 µM).
As for `CON(C)CC(=O)Nc1cc(N(C)C)c2c(c1O)C(=O)C1=C(O)[C@]3(O)C(=O)C(C(N)=O)=C(O)[C@@H](N(C)C)[C@@H]3C[C@@H]1C2` [Example 7, (4S,4aS,5aR,12aS)-4,7-bis(dimethylamino)-3,10,12,12a-tetrahydroxy-9-[(N-methoxy-N-methylglycyl)amino]-1,11-dioxo-1,4,4a,5,5a,6,11,12a-octahydrotetracene-2-carboxamide], the “minimum inhibitory concentration (MIC)” value in the assay on E. coli GC2270 (tet(M)) was above 64; in [1] it was above 64; in [2], 1; in [3] it was above 64; with E. coli GC1073 (tet(B)), above 64; in assay [4], 4. Besides, the “minimum inhibitory concentration (MIC)” value in [5] is listed as 2; in assay [6], above 64; in [7], 32; in [8], 2; in assay [9], 2; in assay [10] it was 1. The “minimum inhibitory concentration (MIC)” value in [11] is 8; in assay [12], 2; in [13], 0.50; in assay [14], 0.50; in assay [15] it was 0.25; in [16], 0.50. The “minimum inhibitory concentration (MIC)” value in assay [17] is listed as 4; in assay [18], above 64. The ED50 in assay [19] was 16 to 32 mg/kg; in assay [21], 0.5 to 2 mg/kg. The molecule further yielded an MIC in assay [20] of 2 µg/mL (≈ 3.49 µM).
